{
  "source": "paper PMC2719696",
  "about": "“Kinetics and Cellular Site of Glycolipid Loading Control the Outcome of Natural Killer T Cell Activation” (Immunity, 2009)",
  "data": [
    {"target": "T1, mCD1d (Mus musculus, UniProt P11609)", "T1 construct": "host or cells: JAWS II (C57BL/6.Trp53-/- derived dendritic cell line)", "T1 sequence (P11609 22-336)": "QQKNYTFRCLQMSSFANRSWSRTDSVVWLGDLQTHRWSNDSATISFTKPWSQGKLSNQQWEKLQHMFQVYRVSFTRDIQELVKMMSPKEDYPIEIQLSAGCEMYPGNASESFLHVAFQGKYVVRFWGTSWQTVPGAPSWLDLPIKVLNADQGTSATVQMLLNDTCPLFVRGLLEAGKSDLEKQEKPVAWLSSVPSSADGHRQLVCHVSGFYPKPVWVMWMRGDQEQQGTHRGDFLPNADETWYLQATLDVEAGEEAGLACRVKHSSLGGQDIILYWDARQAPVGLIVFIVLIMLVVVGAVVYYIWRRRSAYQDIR", "T1 sequence (P01887 21-119 partner)": "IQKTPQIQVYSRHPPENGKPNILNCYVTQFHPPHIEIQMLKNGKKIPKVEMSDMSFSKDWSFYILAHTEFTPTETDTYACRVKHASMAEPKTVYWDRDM", "assay": "mAb L363 surface staining of JAWS II cells by flow cytometry (kinetics and pulse-chase)", "format": "cell-based", "conditions": "JAWS II cells pulsed 500 nM for 1.5 hr, 8 hr chase", "description": "(§1) We studied this possibility directly by using a monoclonal antibody (L363) that specifically recognizes complexes of αGalCer bound to mCD1d ([Yu et al., 2007]). Mouse splenocytes were cultured with either αGalCer-C26:0 or representative Th2 cell-type cytokine-biasing analogs, and L363 staining was assessed on various cell types (Figure 3A). […] This was investigated further with more detailed kinetic studies in which immortalized mouse DC line JAWS II was cultured with each glycolipid and assessed for L363 surface staining at 0.5, 4, and 18 hr (Figure 3B). There was a striking correlation between rapid kinetics of glycolipid association with mCD1d and the ability to induce a Th2 cell-type cytokine response. […] In contrast, most analogs inducing Th2 cell-type cytokine responses gave strong L363 staining by 0.5 hr, which increased modestly or not at all with longer incubation. […] Experiments using responses of iNKT cells to analyze the kinetics of cell-surface appearance gave analogous results (Figure S5).\n(§2) Figure 3 Direct Analysis of Presentation of αGalCer Analogs with Complex-Specific mAb Staining (A) Mouse splenocytes cultured with either vehicle only (0.02% DMSO) or with the indicated αGalCer analogs (100 nM) were harvested after 1 hr or 19 hr of incubation and stained with mAb L363 or anti-CD1d mAb 1B1 and with mAbs specific for CD11c, CD19, and F4/80 (Figure S4). Filled histograms show L363 staining of cells cultured with vehicle only, and open histograms show cells cultured with indicated glycolipids. At the left, the total CD1d staining with mAb 1B1 (open histograms) compared to isotype control mAb (filled histograms) are shown on cells cultured for 19 hr with DMSO only. (B) JAWS II cells were incubated with glycolipids (250 nM) for various times ranging from 0.5–18 hr as indicated, stained with mAb L363, and analyzed by flow cytometry. Dashed line histograms show L363 staining of cells incubated with medium only, and bold histograms show L363 staining of cells incubated with αGalCer analogs. (C) JAWS II cells were pulsed with indicated αGalCer analogs (500 nM) for 1.5 hr, washed extensively, and recultured at 37°C for various chase times. Upon harvesting, cells were placed on ice and subsequently stained with mAb L363 for flow cytometry analysis. Histogram overlays show L363 staining of cells pulsed initially with vehicle only (DMSO, dashed histograms) or with αGalCer analog (bold histograms). […] All results shown (A, B, and C) were representative of at least two independent experiments.\n(§3) Recombinant CD1d proteins were produced and assembled into tetramers for staining as previously described ([Forestier et al., 2007]). To obtain optimally loaded tetramers for iNKT cell staining, we loaded mCD1d with αGalCer-C26:0 and -C24:0 in the presence of 0.05% Triton X-100 (Sigma-Aldrich) and loaded mCD1d with other glycolipids without Triton X-100. For loading of hCD1d, 0.05% Triton X-100 was included with αGalCer-C26:0, -C24:0, and -C20:4, whereas other glycolipids were loaded without Triton X-100. For surface staining of αGalCer/mCD1d complexes, murine splenocytes or JAWS II cells were incubated with 250 nM glycolipids for various times and then 0.2 μg/ml mAb L363 (Alexa Fluor 647 or biotin conjugated) was added directly to the culture for an additional 30 min at RT. In some experiments, additional fluorochrome-conjugated antibodies specific for leukocyte subpopulations were added for the last 15 min of incubation. All samples were analyzed with the FACSCalibur flow cytometer (BD Biosciences).", "values": [
      {"smiles": "CCCCCCCCCCCCCCC(O)C(O)C(COC1OC(CO)C(O)C(O)C1O)NC(=O)CCCCCCCCC", "note": "(stereo not drawn) [αGalCer-C10:0]", "formation of mCD1d-αGalCer surface complexes in pulse-chase analysis": "the complexes formed rapidly and began declining immediately during the chase period"},
      {"smiles": "CCCCCC=CCC=CCCCCCCCCCC(=O)NC(COC1OC(CO)C(O)C(O)C1O)C(O)C(O)CCCCCCCCCCCCCC", "note": "(stereo not drawn) [αGalCer-C20:2]", "formation of mCD1d-αGalCer surface complexes in pulse-chase analysis": "the complexes formed rapidly and began declining immediately during the chase period"},
      {"smiles": "CCCCCCCCCCCCCCCCCCCCCCCCCC(=O)NC(COC1OC(CO)C(O)C(O)C1O)C(O)C(O)CCCCCCCCCCCCCC", "note": "(stereo not drawn) [αGalCer-C26:0, reference compound]", "formation of mCD1d-αGalCer surface complexes in pulse-chase analysis": "formed slowly"}
    ]},
    {"target": "T1, mCD1d", "assay": "mAb L363 surface staining of JAWS II cells by flow cytometry (kinetics and pulse-chase)", "format": "cell-based", "conditions": "JAWS II cells, 250 nM glycolipid, 0.5, 4 and 18 hr", "description": "as §1, §2, §3", "values": [
      {"smiles": "CCCCCCCCCCCCCCCCCCCCCCCC(=O)NC(COC1OC(CO)C(O)C(O)C1O)C(O)C(O)CCCCC", "note": "(stereo not drawn) [OCH]", "L363 surface staining over time": "very weak L363 reactivity"},
      {"smiles": "CCCCCCCCCCCCCCCCCCCCCCCC(=O)NC(COC1OC(CO)C(O)C(O)C1O)C(O)C(O)CCCCCCCCCCCCCC", "note": "(stereo not drawn) [αGalCer-C24:0]", "L363 surface staining over time": "strong L363 staining was detected only at 18 hr"},
      {"smiles": "CCCCCCCCCCCCCCCCCCCCCCCCCC(=O)NC(COC1OC(CO)C(O)C(O)C1O)C(O)C(O)CCCCCCCCCCCCCC", "note": "(stereo not drawn) [αGalCer-C26:0, reference compound]", "L363 surface staining over time": "strong L363 staining was detected only at 18 hr"}
    ]}
  ]
}
